Biological target: T1, human COX-2 enzyme (Homo sapiens, UniProt P35354)
T1 construct: purchased
T1 sequence (P35354 18-604): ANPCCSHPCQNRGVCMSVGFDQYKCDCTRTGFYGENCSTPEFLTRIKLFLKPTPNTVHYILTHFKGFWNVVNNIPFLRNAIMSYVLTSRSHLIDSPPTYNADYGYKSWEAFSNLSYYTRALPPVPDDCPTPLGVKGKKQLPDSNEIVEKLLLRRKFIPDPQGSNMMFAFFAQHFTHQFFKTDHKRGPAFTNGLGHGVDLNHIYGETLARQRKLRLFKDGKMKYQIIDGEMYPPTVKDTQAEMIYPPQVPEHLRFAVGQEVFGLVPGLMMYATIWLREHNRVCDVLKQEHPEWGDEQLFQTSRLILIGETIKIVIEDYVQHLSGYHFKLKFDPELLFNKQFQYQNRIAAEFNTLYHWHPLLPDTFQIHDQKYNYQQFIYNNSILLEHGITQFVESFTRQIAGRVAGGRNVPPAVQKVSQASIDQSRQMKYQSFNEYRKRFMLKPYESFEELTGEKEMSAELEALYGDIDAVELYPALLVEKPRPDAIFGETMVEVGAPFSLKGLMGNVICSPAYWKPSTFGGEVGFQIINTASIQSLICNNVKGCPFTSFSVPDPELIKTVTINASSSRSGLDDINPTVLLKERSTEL
Experiment: Cyclooxygenases (COX-2) enzyme inhibition assay, COX (human) Inhibitor Screening Assay Kit with prostaglandin ELISA readout
Assay type: biochemical
Conditions: 10 μM compound, in vitro, ELISA plate incubation 18 hours, read-out: % Inhibition (COX-2) Mean ± SEM
Method: According to manufacturer instructions, a COX inhibition assay was performed using COX (human) Inhibitor Screening Assay Kit for the compounds 7-imino-5-(1H-indol-3-yl)-1,3-substituted-7,8-dihydropyrimido[4,5-d]pyrimidine-2,4(1H,3H)-dione derivatives (4a-c). All reagents and buffers were prepared in ultrapure water. All stock solutions of the compounds and the positive controls (Indomethacin and Celecoxib) were dissolved in DMSO. In each inhibitor sample tube, 160 μL reaction buffer, 10 μL of heme, 10 μL of diluted COX-2 enzyme, and 10 μL of the diluted inhibitor was added to get a final concentration of 100 μM. […] 10 μL of the vehicle control (DMSO) was added to the background tubes, and COX enzyme's 100% initial activity was obtained. All reaction tubes were incubated for 10 minutes at 37° C. Following this incubation, 10 μL of the substrate, arachidonic acid (AA), was added to all test tubes, mixed, and further incubated for precisely 30 seconds at 37° C. Then, 30 μL of SnCl2 solution was added to each reaction tube to stop the enzyme catalysis. All reaction tubes were removed from the incubator, vortexed, and incubated again for 5 min at room temperature. Reaction tubes were stored at 4° C. to quantify the prostaglandin formation by competitive enzyme-linked immunosorbent assay (ELISA). ELISA standards were prepared in test tubes to perform the competitive ELISA, and dilutions were prepared with the ELISA buffer. The standards, COX reaction dilutions, and background samples were serially diluted. […] Blank (to assess the background absorbance caused by Ellman's reagent) and total activity (TA) (to determine the enzymatic activity of the AChE-linked tracer) wells were left empty, 100 μL and 50 μL of the ELISA buffer were added to the nonspecific binding (NSB) and maximum binding (B0), respectively. […] Finally, the plate reading was done at a wavelength of 405 nm with a Microplate reader from BioTek (by Agilent), and data were collected using Gen5™ (by Agilent) analysis software. […]

Compound	inhibition at 10 µM
N=c1nc(-c2c[nH]c3ccccc23)c2c(=O)[nH]c(=S)[nH]c2[nH]1 [Compound 4b, 7-Imino-5-(1H-indol-3-yl)-2-thioxo-2,3,7,8-tetrahydropyrimido[4,5-d]pyrimidin-4(1H)-one]	88 ± 2.91%
Cn1c(=O)c2c(-c3c[nH]c4ccccc34)nc(=N)[nH]c2n(C)c1=O [Compound 4c, 7-Imino-5-(1H-indol-3-yl)-1,3-dimethyl-7,8-dihydropyrimido[4,5-d]pyrimidine-2,4(1H,3H)-dione]	98 ± 1.53%
N=c1nc(-c2c[nH]c3ccccc23)c2c(=O)[nH]c(=O)[nH]c2[nH]1 [Compound 4a, 7-Imino-5-(1H-indol-3-yl)-7,8-dihydropyrimido[4,5-d]pyrimidine-2,4(1H,3H)-dione]	23 ± 5.1%
